For this assay, the system named is BDF1 mice, P388 leukemia ip, median survival T/C. Description: NCI In Vivo Anticancer Drug Screen. Data for tumor model P388 Leukemia (intraperitoneal) in B6D2F1 (BDF1) mice. The note with it: endpoint: median survival time, higher = longer survival. The method in brief:
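Survival ratio, drug arm over vehicle arm, in mice with a transplanted tumour.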

Setting [1] is: dose: 50.0 mg/kg/injection, schedule: Q01DX009 (ip), vehicle: saline with Tween-80.
[2] abbreviates: dose: 100.0 mg/kg/injection, schedule: Q01DX009 (ip), vehicle: saline with Tween-80.
Where [3] appears, read: dose: 200.0 mg/kg/injection, schedule: Q01DX009 (ip), vehicle: saline with Tween-80.
Where [4] appears, read: dose: 400.0 mg/kg/injection, schedule: Q01DX009 (ip), vehicle: saline with Tween-80.
The mark [5] stands for this setting: dose: 100.0 mg/kg/injection, schedule: Q04DX003 (ip), vehicle: saline with Tween-80.
Setting [6] is: dose: 200.0 mg/kg/injection, schedule: Q04DX003 (ip), vehicle: saline with Tween-80.
The mark [7] stands for this setting: dose: 25.0 mg/kg/injection, schedule: Q01DX009 (ip), vehicle: saline.
[8] abbreviates: dose: 25.0 mg/kg/injection, schedule: Q04DX003 (ip), vehicle: saline.
Where [9] appears, read: dose: 50.0 mg/kg/injection, schedule: Q01DX009 (ip), vehicle: saline.
Setting [10] is: dose: 25.0 mg/kg/injection, schedule: Q01DX005 (ip), vehicle: saline.
Where [11] appears, read: dose: 100.0 mg/kg/injection, schedule: Q01DX005 (ip), vehicle: saline.
[12] abbreviates: dose: 100.0 mg/kg/injection, schedule: Q01DX001 (ip), vehicle: saline sonified.
The mark [13] stands for this setting: dose: 200.0 mg/kg/injection, schedule: Q01DX001 (ip), vehicle: saline sonified.

“And” between values parts separate entries of the source, which are not always exact repeats. Equal values may be shown once. Toxic doses and inconclusive results are not listed.

Regarding `CCOC(=O)Nc1cc2c(c(N)n1)N=C(CN(C)c1ccccc1)CN2`, the T/C was 123 % of control (dose: 12.5 mg/kg/injection, schedule: Q01DX001 (ip), vehicle: Klucel (hydroxypropylcellulose) (HPC)); 164 % of control (dose: 50.0 mg/kg/injection, schedule: Q01DX001 (ip), vehicle: Klucel (hydroxypropylcellulose) (HPC)); 211 % of control (dose: 100.0 mg/kg/injection, schedule: Q01DX001 (ip), vehicle: Klucel (hydroxypropylcellulose) (HPC)).
For `Clc1ccc(C2(C3CCNCC3)CCCO2)cc1` (stereo not given), the T/C was 106 % of control under setting [1] and 90 % of control under setting [2].
Consider `COC(=O)/C(=N\NS(=O)(=O)c1ccc(C)cc1)c1ccccc1`, for which the T/C was 98 % of control (dose: 25.0 mg/kg/injection, schedule: Q04DX003 (ip), vehicle: Klucel (hydroxypropylcellulose) (HPC)); 100 % of control (dose: 50.0 mg/kg/injection, schedule: Q04DX003 (ip), vehicle: Klucel (hydroxypropylcellulose) (HPC)); 94 % of control (dose: 100.0 mg/kg/injection, schedule: Q04DX003 (ip), vehicle: Klucel (hydroxypropylcellulose) (HPC)); 93 % of control (dose: 200.0 mg/kg/injection, schedule: Q04DX003 (ip), vehicle: Klucel (hydroxypropylcellulose) (HPC)).
With `Cc1c(Cl)cccc1NC(=O)Nc1ccccc1`, the T/C is, setting by setting: (dose: 100.0 mg/kg/injection, schedule: Q04DX003 (ip), vehicle: DMSO) 103 % of control; (dose: 200.0 mg/kg/injection, schedule: Q04DX003 (ip), vehicle: DMSO) 100 % of control; (dose: 400.0 mg/kg/injection, schedule: Q04DX003 (ip), vehicle: DMSO) 107 % of control.
As for `COC(=O)C1CN1C(c1ccccc1)(c1ccccc1)c1ccccc1` (stereo not given), the T/C is 95 % of control under setting [3] and 87 % of control under setting [4].
As for `Cc1ccc(SC2CC3CC2C2COCC32)cc1` (stereo not given), the T/C runs as follows: (dose: 25.0 mg/kg/injection, schedule: Q01DX009 (ip), vehicle: Klucel (hydroxypropylcellulose) (HPC)) 86 % of control; (dose: 50.0 mg/kg/injection, schedule: Q01DX009 (ip), vehicle: Klucel (hydroxypropylcellulose) (HPC)) 95 % of control; (dose: 100.0 mg/kg/injection, schedule: Q01DX009 (ip), vehicle: Klucel (hydroxypropylcellulose) (HPC)) 104 % of control.
Take `N=[N+]=CC(=O)OCC(N)C(=O)O` (stereo not given): the T/C is 150 % of control (dose: 3.13 mg/kg/injection, schedule: Q01DX010 (ip), vehicle: saline); 150 % of control and 165 % of control (dose: 6.25 mg/kg/injection, schedule: Q01DX010 (ip), vehicle: saline); 120 % of control (dose: 10.0 mg/kg/injection, schedule: Q01DX010 (ip), vehicle: water); 195 % of control and 200 % of control (dose: 12.5 mg/kg/injection, schedule: Q01DX010 (ip), vehicle: saline); 120 % of control (dose: 15.0 mg/kg/injection, schedule: Q01DX010 (ip), vehicle: water); 115 % of control (dose: 25.0 mg/kg/injection, schedule: Q01DX010 (ip), vehicle: saline).
Regarding `Cc1ccc(S(=O)(=O)/C=C(/I)c2ccccc2)cc1`, the T/C is, setting by setting: (dose: 6.25 mg/kg/injection, schedule: Q01DX009 (ip), vehicle: saline with Tween-80) 124 % of control; (dose: 12.5 mg/kg/injection, schedule: Q01DX009 (ip), vehicle: saline with Tween-80) 106 % of control; (dose: 25.0 mg/kg/injection, schedule: Q01DX009 (ip), vehicle: saline with Tween-80) 106 % of control; under setting [1], 92 % of control and 109 % of control; under setting [2], 109 % of control; under setting [5], 114 % of control. In addition, the T/C by setting is: under setting [3], 106 % of control; under setting [6], 106 % of control; under setting [4], 100 % of control; (dose: 400.0 mg/kg/injection, schedule: Q04DX003 (ip), vehicle: saline with Tween-80) 97 % of control.
`COc1cccc(/C=N/NC(=S)NC2CC3CCC2C3)c1O` (stereo not given): the T/C is 100 % of control under setting [1], 95 % of control under setting [2] and 103 % of control under setting [3].
Turning to `CCOC(=O)C(Br)C(=O)OCC`, the T/C is, setting by setting: (dose: 6.25 mg/kg/injection, schedule: Q01DX009 (ip), vehicle: saline) 100 % of control; (dose: 12.5 mg/kg/injection, schedule: Q01DX009 (ip), vehicle: saline) 100 % of control; (dose: 12.5 mg/kg/injection, schedule: Q04DX003 (ip), vehicle: saline) 110 % of control; under setting [7], 95 % of control; under setting [8], 110 % of control; under setting [9], 86 % of control. In addition, under “dose: 50.0 mg/kg/injection, schedule: Q04DX003 (ip), vehicle: saline”, the T/C was 105 % of control.
On to `CN(CO)c1nc(N(C)CO)nc(N(C)CO)n1`, for which the T/C is 104 % of control (dose: 12.5 mg/kg/injection, schedule: Q01DX005 (ip), vehicle: saline); 113 % of control under setting [10]; 155 % of control under setting [11].
Regarding `Cn1c(=O)c2c(c3ccccc31)Oc1oc3ccc4ccccc4c3c(=O)c1C2`, the T/C under setting [1] is 91 % of control and the T/C under setting [3] was 94 % of control.
`O=C(CNC(=O)c1cccc(C(=O)NCC(=O)Nc2ccc(C3=NCCN3)cc2)c1)Nc1ccc(C2=NCCN2)cc1`: the T/C is, setting by setting: (dose: 8.2 mg/kg/injection, schedule: Q01DX009 (ip), vehicle: saline) 117 % of control; under setting [7], 169 % of control; under setting [9], 250 % of control.
Consider `Cc1ccccc1C(O)c1ccccc1Cl` (stereo not given), for which the T/C under setting [12] is 100 % of control; the T/C under setting [13] was 100 % of control; the T/C (dose: 400.0 mg/kg/injection, schedule: Q01DX001 (ip), vehicle: saline sonified) was 100 % of control.
Turning to `COC(=O)c1oc(C(=O)OC)c(OCc2ccccc2)c1OCc1ccccc1`, the T/C reads like this: (dose: 50.0 mg/kg/injection, schedule: Q01DX001 (ip), vehicle: saline sonified) 100 % of control; under setting [12], 109 % of control; under setting [13], 90 % of control.
For `O=NN1CCNC1=O`, the T/C reads like this: (dose: 7.2 mg/kg/injection, schedule: Q04DX003 (ip), vehicle: saline) 172 % of control; (dose: 10.0 mg/kg/injection, schedule: Q04DX003 (ip), vehicle: saline) 113 % of control; (dose: 16.5 mg/kg/injection, schedule: Q04DX003 (ip), vehicle: saline) 209 % of control; under setting [8], 86 % of control; (dose: 37.5 mg/kg/injection, schedule: Q04DX003 (ip), vehicle: saline) 90 % of control.
As to `COc1cc2ccccc2c(-c2c(O)c(OC)cc3ccccc23)c1O`, the T/C under setting [1] was 91 % of control, the T/C under setting [2] is 86 % of control and the T/C under setting [3] is 88 % of control.
As to `CC(Br)C(=O)NCC(=O)O` (stereo not given), the T/C is, setting by setting: (dose: 50.0 mg/kg/injection, schedule: Q04DX003 (ip), vehicle: saline with Tween-80) 90 % of control; under setting [5], 95 % of control; under setting [6], 100 % of control.
`CC(=O)Nc1ccc(S(=O)(=O)N2CC2)cc1`: the T/C reads like this: under setting [10], 98 % of control; (dose: 50.0 mg/kg/injection, schedule: Q01DX005 (ip), vehicle: saline) 111 % of control; under setting [11], 98 % of control; (dose: 200.0 mg/kg/injection, schedule: Q01DX005 (ip), vehicle: saline) 111 % of control.
As for `C[C@]12CC[C@H](O)C[C@@]1(O)CC[C@@H]1[C@@H]2CC[C@]2(C)[C@@H](c3ccc(=O)oc3)CC[C@]12O`, the T/C (dose: 1.25 mg/kg/injection, schedule: Q01DX009 (ip), vehicle: Klucel (hydroxypropylcellulose) (HPC)) is 93 % of control; the T/C (dose: 2.5 mg/kg/injection, schedule: Q01DX009 (ip), vehicle: Klucel (hydroxypropylcellulose) (HPC)) is 94 % of control; the T/C (dose: 5.0 mg/kg/injection, schedule: Q01DX009 (ip), vehicle: Klucel (hydroxypropylcellulose) (HPC)) is 99 % of control; the T/C (dose: 6.2 mg/kg/injection, schedule: Q01DX010 (ip), vehicle: carboxymethylcellulose (CMC)) is 105 % of control; the T/C (dose: 10.0 mg/kg/injection, schedule: Q01DX009 (ip), vehicle: Klucel (hydroxypropylcellulose) (HPC)) is 101 % of control; the T/C (dose: 12.5 mg/kg/injection, schedule: Q01DX010 (ip), vehicle: carboxymethylcellulose (CMC)) is 90 % of control. Moreover, the T/C runs as follows: (dose: 20.0 mg/kg/injection, schedule: Q01DX009 (ip), vehicle: Klucel (hydroxypropylcellulose) (HPC)) 105 % of control; (dose: 25.0 mg/kg/injection, schedule: Q01DX010 (ip), vehicle: carboxymethylcellulose (CMC)) 100 % of control.

The values above are taken from PubChem BioAssay AID328 (DTP/NCI, 2004).
